Results taken from ChEMBL document CHEMBL3785034, “New isosteroidal alkaloids with tracheal relaxant effect from the bulbs of Fritillaria pallidiflora Schrenk” (Bioorg Med Chem Lett, 2016).
Calls of active or inactive are those of the source. No cut-off for these calls is given here.

Key:
Trachea [1] = test: Inhibition of Ach-induced contraction in Sprague-Dawley rat trachea at 1 to 100 umol/L; assay type: functional, tissue-based; conditions: read-out: pA2 (converted)
Trachea [2] = test: Inhibition of Ach-induced contraction in Sprague-Dawley rat trachea; assay type: functional, tissue-based
Trachea [3] = test: Inhibition of KCl-induced contraction in Sprague-Dawley rat trachea assessed as maximal diastolic rate at 10^-8 mol/L (reference value: 7 +/- 0.3%); assay type: functional; parameters: scale not given: the % may be the effect or the level left
Trachea [4] = test: Inhibition of KCl-induced contraction in Sprague-Dawley rat trachea assessed as maximal diastolic rate at 10^-9 mol/L (reference value: 5.9 +/- 1.8%); assay type: functional; parameters: scale not given: the % may be the effect or the level left
Trachea [5] = test: Inhibition of KCl-induced contraction in Sprague-Dawley rat trachea assessed as maximal diastolic rate at 10^-7 mol/L (reference value: 7 +/- 0.8%); assay type: functional; parameters: scale not given: the % may be the effect or the level left
Trachea [6] = test: Inhibition of KCl-induced contraction in Sprague-Dawley rat trachea assessed as maximal diastolic rate at 10^-6 mol/L (reference value: 6 +/- 1.2%); assay type: functional; parameters: scale not given: the % may be the effect or the level left
Trachea [7] = test: Inhibition of KCl-induced contraction in Sprague-Dawley rat trachea assessed as maximal diastolic rate at 10^-5 mol/L (reference value: 6 +/- 0.6%); assay type: functional; parameters: scale not given: the % may be the effect or the level left
Trachea [8] = test: Inhibition of KCl-induced contraction in Sprague-Dawley rat trachea assessed as maximal diastolic rate at 10^-4 mol/L (reference value: 6.6 +/- 0.3%); assay type: functional; parameters: scale not given: the % may be the effect or the level left
Trachea [9] = test: Inhibition of Ach-induced contraction in Sprague-Dawley rat trachea assessed as maximal diastolic rate at 10^-9 mol/L (reference value: 12.7 +/- 2.8%); assay type: functional; parameters: scale not given: the % may be the effect or the level left
Trachea [10] = test: Inhibition of Ach-induced contraction in Sprague-Dawley rat trachea assessed as maximal diastolic rate at 10^-8 mol/L (reference value: 14 +/- 1.8%); assay type: functional; parameters: scale not given: the % may be the effect or the level left
Trachea [11] = test: Inhibition of Ach-induced contraction in Sprague-Dawley rat trachea assessed as maximal diastolic rate at 10^-7 mol/L (reference value: 14.2 +/- 2.3%); assay type: functional; parameters: scale not given: the % may be the effect or the level left
Trachea [12] = test: Inhibition of Ach-induced contraction in Sprague-Dawley rat trachea assessed as maximal diastolic rate at 10^-6 mol/L (reference value: 15.9 +/- 3%); assay type: functional; parameters: scale not given: the % may be the effect or the level left
Trachea [13] = test: Inhibition of Ach-induced contraction in Sprague-Dawley rat trachea assessed as maximal diastolic rate at 10^-5 mol/L (reference value: 15.9 +/- 2.6%); assay type: functional; parameters: scale not given: the % may be the effect or the level left
Trachea [14] = test: Inhibition of Ach-induced contraction in Sprague-Dawley rat trachea assessed as maximal diastolic rate at 10^-4 mol/L (reference value: 15 +/- 4.2%); assay type: functional; parameters: scale not given: the % may be the effect or the level left
Trachea [15] = test: Inhibition of Ach-induced contraction in Sprague-Dawley rat trachea assessed as tracheal tension at 10^-9 mol/L (reference value: 0.63 to 0.98g); assay type: functional
Trachea [16] = test: Inhibition of Ach-induced contraction in Sprague-Dawley rat trachea assessed as tracheal tension at 10^-8 mol/L (reference value: 0.63 to 0.98 g); assay type: functional
Trachea [17] = test: Inhibition of Ach-induced contraction in Sprague-Dawley rat trachea assessed as tracheal tension at 10^-7 mol/L (reference value: 0.63 to 0.98 g); assay type: functional
Trachea [18] = test: Inhibition of Ach-induced contraction in Sprague-Dawley rat trachea assessed as tracheal tension at 10^-6 mol/L (reference value: 0.63 to 0.98 g); assay type: functional
Trachea [19] = test: Inhibition of Ach-induced contraction in Sprague-Dawley rat trachea assessed as tracheal tension at 10^-5 mol/L (reference value: 0.63 to 0.98 g); assay type: functional
Trachea [20] = test: Inhibition of Ach-induced contraction in Sprague-Dawley rat trachea assessed as tracheal tension at 10^-4 mol/L (reference value: 0.63 to 0.98 g); assay type: functional
Trachea [21] = test: Inhibition of KCl-induced contraction in Sprague-Dawley rat trachea assessed as tracheal tension at 10^-9 mol/L (reference value: 2.16 to 2.59 g); assay type: functional
Trachea [22] = test: Inhibition of KCl-induced contraction in Sprague-Dawley rat trachea assessed as tracheal tension at 10^-8 mol/L (reference value: 2.16 to 2.59 g); assay type: functional
Trachea [23] = test: Inhibition of KCl-induced contraction in Sprague-Dawley rat trachea assessed as tracheal tension at 10^-7 mol/L (reference value: 2.16 to 2.59 g); assay type: functional
Trachea [24] = test: Inhibition of KCl-induced contraction in Sprague-Dawley rat trachea assessed as tracheal tension at 10^-6 mol/L (reference value: 2.16 to 2.59 g); assay type: functional
Trachea [25] = test: Inhibition of KCl-induced contraction in Sprague-Dawley rat trachea assessed as tracheal tension at 10^-5 mol/L (reference value: 2.16 to 2.59 g); assay type: functional
Trachea [26] = test: Inhibition of KCl-induced contraction in Sprague-Dawley rat trachea assessed as tracheal tension at 10^-4 mol/L (reference value: 2.16 to 2.59 g); assay type: functional
Trachea [27] = test: Inhibition of Ach-induced contraction in Sprague-Dawley rat trachea at 100 umol/L; assay type: functional, tissue-based

Row | Compound | Kb (Trachea [1]) | EC50 (Trachea [2]) | Activity (Trachea [3]) | Activity (Trachea [4]) | Activity (Trachea [5]) | Activity (Trachea [6]) | Activity (Trachea [7]) | Activity (Trachea [8]) | Activity (Trachea [9]) | Activity (Trachea [10]) | Activity (Trachea [11]) | Activity (Trachea [12]) | Activity (Trachea [13]) | Activity (Trachea [14]) | Activity (Trachea [15]) | Activity (Trachea [16]) | Activity (Trachea [17]) | Activity (Trachea [18]) | Activity (Trachea [19]) | Activity (Trachea [20]) | also measured
1 | C[C@H]1CC[C@H]2N(C1)C[C@H]1[C@@H]3C[C@H]4[C@@H](CC(=O)[C@H]5C[C@@H](O[C@@H]6O[C@H](CO)[C@@H](O)[C@H](O)[C@H]6O)CC[C@@]54C)[C@@H]3CC[C@@H]1[C@@]2(C)O | 2630 nM | 3000 nM | 6.2% | 7.8% | 6.4% | 7.5% | 6.4% | 8.3% | 12.2% | 13.8% | 14.9% | 15% | 15.9% | 15.6% | 0.85 g | 0.84 g | 0.83 g | 0.84 g | 0.83 g | 0.84 g | Activity (Trachea [21]): 2.33 g; Activity (Trachea [22]): 2.37 g; Activity (Trachea [23]): 2.36 g; Activity (Trachea [24]): 2.34 g; Activity (Trachea [25]): 2.37 g; Activity (Trachea [26]): 2.33 g
2 | C[C@H]1CC[C@@H]2N(C1)C[C@H]1[C@@H]3C[C@H]4[C@@H](CC(=O)[C@H]5C[C@@H](O)CC[C@@]54C)[C@@H]3CC[C@H]1[C@]2(C)O [IMPERIALINE] | 3.89 nM | 4400 nM | 6.3% | 5.7% | 6% | 6.4% | 6.8% | 7.2% | 14.5% | 28.1% | 35.3% | 40.4% | 45.7% | 50.7% | 0.58 g | 0.55 g | 0.52 g | 0.5 g | 0.49 g | 0.48 g | Activity (Trachea [21]): 2.44 g; Activity (Trachea [22]): 2.43 g; Activity (Trachea [23]): 2.44 g; Activity (Trachea [24]): 2.43 g; Activity (Trachea [25]): 2.42 g; Activity (Trachea [26]): 2.41 g
3 | C[C@@H]1CC[C@H]2N(C1)C[C@H]1[C@@H]3C[C@H]4[C@@H](CC(=O)[C@H]5C[C@@H](O)CC[C@@]54C)[C@@H]3CC[C@@H]1[C@]2(C)O | 646 nM | 650 nM | 5.2% | 6.2% | 3.2% | 3.6% | 3.3% | 3.6% | 15.8% | 20.6% | 27.5% | 30.4% | 34.3% | 39.3% | 0.54 g | 0.51 g | 0.48 g | 0.46 g | 0.43 g | 0.38 g | inhibition (Trachea [27]): Active; Activity (Trachea [21]): 2.43 g; Activity (Trachea [22]): 2.46 g; Activity (Trachea [23]): 2.49 g; Activity (Trachea [24]): 2.48 g; Activity (Trachea [25]): 2.49 g; Activity (Trachea [26]): 2.48 g
